Data on 9 molecules can be found in PMC9953095, “Design, Synthesis and Biological Evaluation of Quinazolinamine Derivatives as Breast Cancer Resistance Protein and P-Glycoprotein Inhibitors with Improved Metabolic Stability” (Biomolecules, 2023).

Values joined by “and” are separate entries in the source; they are usually repeats but may differ in a detail not shown here. Identical values can stand only once. Like-named read-outs stand apart in the source and are kept apart here.

Data set [1] relates to BCRP-mediated MDR cell line H460/MX20. As to the kind of experiment: MTT reversal assay with mitoxantrone, BCRP-overexpressing H460/MX20 cells. The conditions noted are these: Homo sapiens, NCI-H460/MX20, H460/MX20, mitoxantrone alone, read-out: IC50 ± SD of mitoxantrone. The data set is classed as cell-based. How it is done: (§1) The human lung cancer cell line H460, and its MX-selected derivative BCRP-overexpressing cell line, H460/MX20, were used in this study. The KB-C2 cell line was selected by colchicine (Alfa Aesar, Haverhill, MA, USA) (2 μg/mL) with human cervical carcinoma cell line KB-3-1.
(§2) Cytotoxicity tests and reversal experiments were performed using the 3-(4,5-dimethylthiazol-2-yl)-2,5-diphenyltetrazolium bromide (MTT) colorimetric assay. Cells were seeded evenly into 96-well plates. […] To determine the MDR reversal efficacy of the quinazolinamine derivatives, an anticancer drug (mitoxantrone, colchicine, paclitaxel or cisplatin) was added into the designated wells after 2 h pre-incubation with a quinazolinamine derivative or a positive control inhibitor at non-toxic concentrations. After 72 h of drug incubation, the MTT reagent (4 mg/mL) was added into the wells, and then the plates were incubated for an additional 4 h. Subsequently, the supernatant was discarded and 100 µL of dimethyl sulfoxide (DMSO) was added to dissolve the formazan crystals. Cell viability was determined by measuring the absorbance by using an accuSkan™ GO UV/Vis Microplate Spectrophotometer (Fisher Sci., Fair Lawn, NJ, USA) at a wavelength of 570 nm.

The subject of data set [2] is human lung cancer cell line H460. The data set is described as follows: MTT reversal assay with mitoxantrone, parental H460 cells. Type of data set: cell-based. The conditions noted are these: NCI-H460, H460, mitoxantrone alone, read-out: IC50 ± SD of mitoxantrone. As to the method: as §1, §2
On the technique in general: Formazan colour is commonly taken as a measure of viable cells.

Data set [3] in a line: Metabolic stability with human liver microsomes. Further: tested at 200 µM. Type of data set: in vitro ADME. As to conditions: after 1 h of incubation with human liver microsomes, 37 °C, NADPH. How it is done:
Human liver microsome (20 mg/mL) 6.25 µL, nicotinamide adenine dinucleotide phosphate (NADPH) (0.75 µmol), MgCl2 (0.75 µmol), and the test compound (0.05 µmol) were added into a potassium phosphate buffer (pH 7.4) with 250 µL of final volume. The incubation was carried out aerobically at 37 °C. The mixture was pre-incubated without NADPH for 10 min at 37 °C and NADPH was added to start the reaction. At 1 h after the start of the reaction, an aliquot (50 µL) of the incubation mixture was taken from each incubation and mixed with 150 µL of ice-cold acetonitrile to terminate the reaction. Subsequently, the sample was centrifuged (12,000 rpm) at room temperature. The resulting supernatant was filtered and analyzed using HPLC (LC, Agilent 1200; column, HC-C18(2); column temperature, 25 °C; mobile phase, solvent A, methanol, solvent B, water; gradient elution, 30–99% solvent A; flow rate, 1 mL/min; UV signals were recorded at 254 nm).
(In general: Liver microsomes are a subcellular fraction often used to study metabolism.)

Data set [4] relates to P-gp-mediated multidrug-resistant cell line KB-C2. The data set is described as follows: cells. As to conditions: Homo sapiens, KB-C2, read-out: IC50 value of colchicine. How it is done:
as §1, §2

In a further data set the target is T1, BCRP ATPase (Homo sapiens, UniProt Q9UNQ0).
T1 construct: host or cells: High Five insect cells (membrane vesicles)
T1 sequence (Q9UNQ0 1-655): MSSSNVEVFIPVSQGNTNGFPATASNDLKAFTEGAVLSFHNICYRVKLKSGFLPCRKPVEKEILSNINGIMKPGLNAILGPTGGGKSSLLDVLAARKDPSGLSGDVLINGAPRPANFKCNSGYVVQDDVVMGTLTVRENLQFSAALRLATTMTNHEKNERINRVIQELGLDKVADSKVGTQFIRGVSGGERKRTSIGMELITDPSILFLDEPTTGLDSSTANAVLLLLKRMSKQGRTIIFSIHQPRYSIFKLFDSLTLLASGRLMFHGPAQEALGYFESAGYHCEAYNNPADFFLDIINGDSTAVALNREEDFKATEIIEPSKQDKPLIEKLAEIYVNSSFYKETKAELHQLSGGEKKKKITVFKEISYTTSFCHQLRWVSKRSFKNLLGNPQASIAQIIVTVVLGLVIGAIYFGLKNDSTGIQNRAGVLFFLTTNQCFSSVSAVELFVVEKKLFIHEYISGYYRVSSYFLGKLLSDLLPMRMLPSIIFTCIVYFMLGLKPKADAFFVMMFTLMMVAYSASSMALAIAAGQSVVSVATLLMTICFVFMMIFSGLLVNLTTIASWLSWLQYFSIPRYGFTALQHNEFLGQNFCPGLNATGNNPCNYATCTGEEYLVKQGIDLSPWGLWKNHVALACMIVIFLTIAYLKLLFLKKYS
The data set is described as follows: Vanadate-sensitive BCRP ATPase assay. The conditions noted are these: membrane vesicles of High Five insect cells; Figure 10A,B. The data set is classed as biochemical. As to the method: The vanadate (Vi)-sensitive ATPase activity of BCRP and P-gp in the membrane vesicles of High Five insect cells was measured as described previously. The results were presented as vanadate-sensitive ATPase activities by determining the difference in inorganic phosphate liberation measured in the presence and absence of sodium orthovanadate.

Data set [5] deals with BCRP localization in H460/MX20 cells. As to the kind of experiment: Immunofluorescence assay of BCRP localization in H460/MX20 cells. Type of data set: cell-based, human. The conditions noted are these: 5 μM for 24, 48, and 72 h, Figure 8A,C. How it is done: For immunofluorescence analysis, parental and drug-resistant cells were seeded in 24-well plates at 10,000–20,000 cells/well and incubated for 24 h. The cells were incubated with or without cyclopropyl quinazolinamine 22 or azide quinazolinamine 33 for 24 h, 48 h, and 72 h. Thereafter, cells were washed with PBS and fixed with 4% paraformaldehyde for 10 min at room temperature and then rinsed with PBS twice, followed by permeabilization with 1% Triton X-100 for 10 min at 4 °C. The cells were again washed twice with PBS, and then blocked with 6% BSA for 1 h at 37 °C. Fixed cells were incubated with monoclonal antibody against the BCRP protein (BXP 21) (Sigma-Aldrich, Inc., St. Louis, MO) (1:1000) or P-gp (F4) (Sigma-Aldrich, Inc., St. Louis, MO, USA) overnight at 4 °C, followed by two washes with PBS. The cells were then further incubated with Alexa flour 488 goat anti-mouse IgG (1:1000) (Abcam plc.) for 2 h at 37 °C. After the cells were washed twice with PBS, 4′,6-diamidino-2-phenylindole (DAPI) (2 µg/mL) was used for nuclear counterstaining. The immunofluorescence images were generated using a Nikon TE-2000S fluorescence microscope (Nikon Instruments Inc, Melville, NY, USA).

For another data set, the system named is H460 cells. The data set is described as follows: [3H]-mitoxantrone accumulation assay, H460. Type of data set: cell-based, human. As to conditions: parental H460 cells; compound 5 μM; Figure 6A. As to the method: (§3) To determine the accumulation of drugs on H460, H460/MX20, KB-3-1, and KB-C2 cells, the cells ([…] cells/well) were seeded in the 24-well plates and incubated at 37 °C with 5% CO2 [17]. After 12 h of incubation, a test compound (5 µM) was added and the plates were incubated at 37 °C for 2 h. Cells were then incubated with 0.01 µM [^3H]-MX or [^3H]-paclitaxel-containing medium for an additional 2 h at 37 °C, with or without a test compound. The cells were washed twice with ice-cold phosphate-buffered saline (PBS), trypsinized and lysed at the end of incubation. The radioactivity was measured using the Packard TRICARB1 1900A liquid scintillation analyzer.

For data set [6], the system named is BCRP protein in H460/MX20 cells. The data set is described as follows: Western blot of BCRP expression in H460/MX20 cells. The data set is classed as cell-based, human. As to conditions: H460/MX20 total cell lysate; Figure 7. How it is done:
Cells in T25 flask were washed with ice-cold PBS. Lysis buffer (100 µL) was added into T25 flask. Using a cell scraper, scrape adherent cells were scraped off the flask and the cell suspension was transferred into a microcentrifuge tube (1.5 mL). Cells were agitated for 20 min at 4 °C and cell lysate was centrifuged mixture at 4 °C for 20 min at 12,000 rpm. The supernatant (lysate) was used for the gel electrophoresis. Equal amounts of total cell lysates (20 µg protein) were resolved by sodium dodecyl sulfate polyacrylamide gel electrophoresis (SDS-PAGE) and electrophoretically transferred onto polyvinylidene fluoride (PVDF) membranes. After incubation in a blocking solution (5% milk) for 2 h at room temperature, the membranes were incubated overnight with primary monoclonal antibodies against GAPDH (GA1R) (Invitrogen, Carlsbad, CA, USA) at 1:1000 dilution of BCRP protein (BXP 21) (Sigma-Aldrich, Inc., St. Louis, MO, USA) (1:1000) or P-gp (F4) (Sigma-Aldrich, Inc., St. Louis, MO, USA) at 4 °C, and were further incubated with horseradish […] (HRP)-conjugated secondary antibody (Thermo Fisher Scientific Inc., Waltham, MA, USA) at 1:1000 dilution for 2 h at room temperature. The protein antibody complex was detected using an enhanced chemiluminescence detection system. The grayscale ratio was analyzed by ImageJ and normalized by the grayscale of the ABC protein divided by that of GAPDH.

Data set [7] deals with BCRP-overexpressing H460/MX20 cells. As to the kind of experiment: [3H]-mitoxantrone accumulation assay, H460/MX20. Type of data set: cell-based, human. How it is done:
as §3

In general, IC50 refers to the concentration that inhibits the measured activity by half. Consider `O=C1c2c(O)ccc(O)c2C(=O)c2c(NCCNCCO)ccc(NCCNCCO)c21` [Mitoxantrone], for which the IC50 in data set [1] (Table 1 series) was 5.66 ± 0.29 µM; in [1] (Table 2 series), 6.5 ± 0.14 µM; in [2] (Table 1 series) it was 72 ± 9 nM; in data set [2] (Table 2 series), 154 ± 51 nM.

In the case of `COc1ccc2c3c([nH]c2c1)[C@H](CC(C)C)N1C(=O)[C@H](CCC(=O)OC(C)(C)C)NC(=O)[C@@H]1C3` [Ko143, reference compound], in [3], the “Metabolic Stability, % compound remaining” value was 41% and 41 ± 7%.

Regarding `CCc1cccc(Nc2nc(-c3ccncc3)nc3ccccc23)c1` [Compound 24, N-(3-Ethylphenyl)-2-(pyridin-4-yl)quinazolin-4-amine], in data set [3], the “Metabolic Stability, % compound remaining” value is given as 91 ± 3%.

For the molecule `CC(C)c1ccc(Nc2nc(-c3ccncc3)nc3ccccc23)cc1` [Compound 23, N-(4-Isopropylphenyl)-2-(pyridin-4-yl)quinazolin-4-amine], in data set [3], the “Metabolic Stability, % compound remaining” value was 75 ± 6%.

Consider `COc1ccc(Nc2nc(-c3ccncc3)nc3ccccc23)cc1` [Compound 27, N-(4-Methoxyphenyl)-2-(pyridin-4-yl)quinazolin-4-amine], for which the “Metabolic Stability, % compound remaining” value in [3] was 83 ± 1%.

For the molecule `COc1cc2c(c(OC)c1OC)-c1ccc(OC)c(=O)cc1[C@@H](NC(C)=O)CC2` [colchicine], the IC50 in data set [4] turned out to be 7.34 µM.

A word on the melting point: it is the temperature, or range, at which the solid turns liquid. As to `CCCc1ccc(Nc2nc(-c3ccncc3)nc3ccccc23)cc1` [Compound 5, N-(4-Propylphenyl)-2-(pyridin-4-yl)quinazolin-4-amine], the melting point fell in the range of 212 to 214 °C. In [3], the “Metabolic Stability, % compound remaining” value amounted to 80 ± 5%.

`CCc1ccc(Nc2nc(-c3ccncc3)nc3ccccc23)cc1` [Compound 4, N-(4-Ethylphenyl)-2-(pyridin-4-yl)quinazolin-4-amine] came in with a melting point of 228 to 230 °C. Also, the “Metabolic Stability, % compound remaining” value in data set [3] turned out to be 87 ± 12%.

On to `[N-]=[N+]=Nc1ccc(Nc2nc(-c3ccncc3)nc3ccccc23)cc1` [Compound 33, N-(4-Azidophenyl)-2-(pyridin-4-yl)quinazolin-4-amine], for which the “effect on Vi-sensitive BCRP ATPase activity (ATP hydrolysis)” value on BCRP ATPase is “significantly stimulated”. In data set [5], the “BCRP fluorescence on the membranes / intracellular localization of BCRP” value is reported as “did not change the intracellular localization”. Also, the accumulation of mitoxantrone result with H460 cells was “slightly increase”; in [7] (resistant H460/MX20 cells, compound 5 μM, Figure 6A) it was “increased the accumulation”. Also, the “expression level of BCRP protein” value in [6] is recorded as “not altered”. Besides, in data set [7] (H460/MX20, compound followed by UV light activation), the “accumulation of mitoxantrone after UV light activation” value is on record as “increased compared to the group without activation”. Moreover, the “Metabolic Stability, % compound remaining” value in data set [3] is on record as 86 ± 11%.
